From patent publication US11998016B2, “Use of Chaetomium globosum strain in controlling fusarium crown rot of wheat” (priority 2020, dated 2024)

System: Fusarium crown rot (FCR) of wheat, Fusarium pseudograminearum G14LY24-2
Assay: Field effect of seed coating on controlling FCR of wheat (inoculated field disease nurseries)
Assay type: in vivo
Conditions: for Average disease rating: grading 0-5
Description: Wheat grains are soaked for 12 h, sterilized for 60 min, allowed to stand for two days, sterilized for 30-60 min, and cooled for later use. Fusarium pseudograminearum G14LY24-2 was selected on a PDA plate. After growing for three days, marginal hyphae were picked to grow on a fresh PDA plate. After three days, the hyphal pellets were plated into a wheat grain polyethylene bag with sterilized wheat grains. The hyphal pellets grew at room temperature for two weeks until the fungi grew all over wheat grains, and stored in a refrigerator at 4° C. after air-drying.
Disease nurseries were constructed in a 1:1 ratio of seed quantity to inoculum volume ratio. The inoculation was located 3-5 cm above the seed. The seeds to be sown and the inoculum were mixed first, and after mixing well, well-mixed sowing materials were sown by a planter.
Selected C. globosum strains were activated on a fresh PDA, and hyphal pellets were picked into 9 cm PDA Petri dishes. After 15 days, perithecia were ground in sterile water using a spreading rod, and ascospore suspension was controlled at about 100 mL, with a concentration of 1.0-2.0×10^7 ascospores/mL; in case of a low concentration, the suspension was centrifuged at 3,000 rpm for 5 min, dewatered, and resuspended. 75 mL of fungal suspension (approximately 1.3×10^7 ascospores/mL) was mixed with 25 mL of 4 wt % carboxymethyl cellulose salt solution into 100 mL of fungal suspension with 1% carboxymethyl cellulose salt (approximately 1.0×10^7 ascospores/mL). 100 mL of 1×10^7 ascospores/mL fungal suspension with 1% carboxymethyl cellulose salt was mixed well with 5 kg of wheat seeds. Chaetomium globosum strain 12XP1-2-3-coated seeds were rinsed and spread on a plate to count spores on the seed surface, which was 5.0-5.3×10^4 ascospores per seed. The wheat cultivar in 2018 was “Bainong 207”, the wheat cultivar in 2019 was “Aikang 58”, the control agent was 30 g/L difenoconazole, and the seeds were dressed in an agent-to-seed ratio of 1:333.
Field sampling method: At the seedling stage, the emergence rate was investigated, and the plant height, tap root length, fresh weight, dry weight, and colonization ability of C. globosum were measured; at the tillering stage, the morbidity was investigated, and the plant height, tap root length, fresh weight, dry weight, tiller number, and colonization ability of C. globosum were measured; the morbidity was investigated at the jointing stage; the white ear rate was investigated at the filling stage. The method was to investigate the number of white heads and total number of ears per 1 m2 plot and calculate the white ear rate of the plot. The diseased stem rate was investigated at the maturing stage; 20 stems were sampled at five points in each plot, a total of 100 stems for each treatment were brought back to the laboratory, and leaf sheaths were removed thoroughly to determine the disease rating.
The grading standard for adult stage was as follows: 0=no disease; 1=browning in the first node; 2=browning in the second node; 3=browning in the third node; 4=browning in the peduncle or white ears at the filling stage; and 5=diseased plant without ear bearing. The yield was determined during harvest.

[1] = “Aikang 58” in Wenxian in 2019, wheat filling stage
[2] = “Bainong 207” in Kaifeng in 2018, wheat filling stage

`CC1COC(Cn2cncn2)(c2ccc(Oc3ccc(Cl)cc3)cc2Cl)O1` (stereo not drawn) [Difenoconazole, difenoconazole] was tested, and the Disease index [1] was 9.4, the “Diseased stem rate %” value [1] was 26.0% and the Average disease rating [1] was 0.5. For the same molecule, the Disease index [2] was 12.9, the “Diseased stem rate %” value [2] was 30.0% and the Average disease rating [2] was 0.6.
